Reference: patent US7119071B2, “Amino terminal substance P compositions and methods for using the same” (University of Medicine and Dentistry of New Jersey, priority 2002, dated 2006)

Experiments:
Assay type in all cases: cell-based, human
TGF-β in BM stroma = experiment: Induction of TGF-β in BM stroma (CCL 64 growth inhibition bioassay); conditions: for TGF-β (pg/ml) 1st stimulation: BM stroma, 16 h, secreted and cell-bound, mean±SD; for TGF-β (pg/ml) 1st stimulation / TGF-β (pg/ml) 2nd stimulation: 10 nM SP(1-4) or 10 ng/ml SCF; for TGF-β (pg/ml) 2nd stimulation: BM stroma re-stimulated for 16 h after 16 h 1st stimulation
Method: (§1) Stromal cultures were prepared with BM aspirates from healthy donors as described^24. Briefly, stromal cells were cultured at 33° C. and at day 3, the granulocytes and red blood cells were removed by Ficoll-Hypaque density gradient. Cultures were reincubated with weekly replacement of 50% culture media until confluence. Cytokine, NK receptor and c-kit expressions were studied in confluent stroma, stimulated with 10 nM SP(1-4) and/or 10 ng/ml SCF. Stroma was stimulated in 3 ml sera-free cc-MEM, supplemented with insulin-transferring-selenium-A (Life Technologies, Grand Island, N.Y.). At 16 h, stromal monolayers were washed with sera-free α-MEM and then re-incubated for 16 h with media, 10 nM SP(1-4) or 10 ng/ml SCF. Controls included stroma cultured for 16 h or 32 h in media alone. Time-course and dose-response curves established the optimal concentrations of SCF and SP(1-4).
Growth inhibition of CCL 64 cells forms the basis of the bioassay used to quantitate active TGF-β^25. Each sample was tested in triplicate with […] of supernatants. TGF-β levels were determined from a standard curve established with TGF-β concentrations ranging from 0.001 to 10 ng/ml vs. cell concentration. The presence of TGF-β1 was verified by reanalyses of samples containing >20 ng/ml TGF-β with neutralizing anti-hTGF-β1^25. Neutralization was determined if the anti-TGF-β1 reversed the growth inhibitory effect of the supernatants. • 1. Biopanning of Phage Display Library and Selection of Clones
BM stroma was stimulated with 10 nM SP(1-4) or 10 ng/ml SCF (1st stimulation). After 16 h, cells were harvested or cultures were re-stimulated for 16 h (2nd stimulation) with 10 nM SP(1-4) or 10 ng/ml SCF. TGF-β and TNF-α levels were determined in the total volume of supernatants and cell extracts, obtained from one flask of stromal cells. The results are represented as the mean±SD of the total concentration (secreted and cell-bound/106 stromal cells). p<0.05 vs. unstimulated or SCF.

β-PPT-I mRNA = experiment: Quantitative RT-PCR for β-PPT-I mRNA in BM stroma; conditions: n=6; for β-PPT-I mRNA, 1st stimulation: BM stroma, 10 nM SP(1-4) or 10 ng/ml SCF for 16 h, mean±SD; for β-PPT-I mRNA, 2nd stimulation: BM stroma washed and re-stimulated for 16 h after 16 h 1st stimulation
Method: as §1
(§2) Quantitative RT-PCR for NK-1, NK-2 and β-PPT-I mRNA was performed as described^3, 24. Briefly, 2 μg of total RNA from BM stroma was reverse transcribed and 200 ng cDNA used in PCR reactions with standard DNA at log10 fold dilutions ranging between 10^−2 and 10^−6 attomole/L. PCR products (10 μl) were separated on agarose containing ethidium bromide. The DNA was scanned with a Fluorimager (Molecular Dynamics, Sunnyvale, Calif.) and the densities analyzed with ImageQuant software (Molecular Dynamics, version 5.2). A standard curve was established for each unknown sample: Band densities of unknown/standard DNA vs. Log10 standard DNA concentration. The concentration of the unknown sample was read at the point where the ratio of the unknown and standard were equivalent. Construction of DNA standards was previously described^24. • 1. Immunofluorescence for NK Receptors
(§3) BM stroma was stimulated with 10 nM SP(1-4) or 10 ng/ml SCF for 16 h (1st stimulation). After this, cultures were washed and then re-stimulated further for 16 h with similar concentrations of SP(1-4) or SCF (2nd stimulation). NK-1, NK-2 and β-PPT-I mRNA levels were quantitative by RT-PCR. The results are represented as the mean±SD, n=6. Each experiment was performed with a different BM donor. p<0.05: * vs. unstimulated or SP(1-4). […]: ** vs. unstimulated or SP(1-4).

NK-2 mRNA = experiment: Quantitative RT-PCR for NK-2 mRNA in BM stroma; conditions: n=6; for NK-2 mRNA, 1st stimulation: BM stroma, 10 nM SP(1-4) or 10 ng/ml SCF for 16 h, mean±SD; for NK-2 mRNA, 2nd stimulation: BM stroma washed and re-stimulated for 16 h after 16 h 1st stimulation
Method: as §1, §2, §3

NK-1 mRNA = experiment: Quantitative RT-PCR for NK-1 mRNA in BM stroma; conditions: n=6; for NK-1 mRNA, 1st stimulation: BM stroma, 10 nM SP(1-4) or 10 ng/ml SCF for 16 h, mean±SD; for NK-1 mRNA, 2nd stimulation: BM stroma washed and re-stimulated for 16 h after 16 h 1st stimulation
Method: as §1, §2, §3

CFU-GM = experiment: Clonogenic assay for CFU-GM in sera-free cultures; conditions: n=7
Method: BM aspirate was obtained from the posterior iliac crest of normal healthy volunteers. Mononuclear cells were isolated by Ficoll-Hypaque density gradient and then assayed for CFU-GM in sera-free cultures as described^3. Briefly, 10^5 BM mononuclear cells/ml were plated in methylcellulose with 10 or 1 nM of SP(1-4). Each experimental point was assayed in duplicate. Cultures were assayed in parallel in the presence or absence of anti-TGF-β or anti-TNF-α, each ranging between 2 μg/ml and 10 ng/ml. Cultures contained 3 U/ml of rhGM-CSF. At day 10, the number of colonies with >20 cells were counted.

NK-1 receptor = experiment: Immunofluorescence for SP-binding sites (NK-1) in BM stroma; conditions: 10 ng/ml SCF and/or 10 nM SP(1-4), FIG. 2
Method: (§4) BM stroma was stimulated with 10 ng/ml of SCF. At 24 h, cells were washed and then immediately incubated at 4° C. for 2 h with 200 ng/ml of biotin-SP or biotin-NK-A. After this, cells were labeled with FITC-avidin for 30 min and then examined for fluorescence intensity with an Olympus Provis AX-70 at 480±40 nm/excitation and 535±50 nm/emission. […] The optimal experimental conditions were determined in dose-response and time-course studies. Specificity of binding by SP or NK-A was studied in competition labeling with the pan-tachykinin antagonist, spantide. • 2. TNF-α determination
(§5) Since NK-1 and NK-2 receptors mediated the hematopoietic effects of the tachykinins^5, this section describes the studies and their results designed to further determine the interacting receptor for SP(1-4). Due to the lack of specific antibodies to the human NK-1 and NK-2 receptors, their detection by immunofluorescence was performed with the preferred ligand that was conjugated to biotin: SP for NK-1 and NK-A for NK-2^12. Spantide, a pan-tachykinin antagonist that competes with the ligand for NK receptor binding was used to determine the specificity of binding.

c-kit = experiment: Immunofluorescence for c-kit in BM stroma; conditions: 10 ng/ml SCF, 6 h to 24 h, dim in unstimulated stroma
Method: The relative expression of c-kit in BM stroma was determined by immunofluorescence. BM stroma was cultured on coverslips (Fisher Scientific, Springfield, N.J.) and then stimulated with 10 ng/ml of SCF. At different times after cell stimulation, cells were labeled with 50 ng/ml of biotinylated goat anti-c-kit and FITC-avidin. Non-specific binding was determined with biotinylated non-immune goat anti-IgG. Cells were immediately examined on an OlympusProbis microscope (New York/New Jersey Scientific, Inc., Middlebush, N.J.).

SP-IR = experiment: Competitive ELISA for SP-immunoreactivity (SP-IR) in stimulated BM stroma; conditions: 10 ng/ml SCF, 5×10^6 stroma
Method: Competitive ELISA quantitated SP-IR as described^3. Briefly, Immulon 96-well plates (Dynatech Laboratories Inc., Chantilly, Va.) were precoated with streptavidin and then incubated with biotinylated SP (Chiron Mimotopes, Emeryville, Calif.). Equal volumes (50 μl) of unknown samples and optimum rabbit anti-SP were added to quadruplicate wells. Each sample was assayed as undiluted and three serial dilutions. Complexed anti-SP was detected with Alk Phos-conjugated goat anti-rabbit IgG and Sigma 104 phosphatase substrate. SP-IR levels were calculated from a standard curve developed with O.D. at 405 nm vs. 12 serial dilutions of known SP concentrations, ranging from 100 to 0.08 pg/ml.
Total RNA from unstimulated and stimulated (10 ng/ml SCF) BM stroma was analyzed for steady state NEP mRNA levels by northern analyses. The results shown in FIG. 4A indicate single bands at the predicted size of 1.8 kb. […] Analyses for SP and SP(1-4) were performed at different times using Ciphergen's ProteinChip Arrays. ELISA determined the levels of SP-IR in the supernatant and cell extracts of the stimulated stroma (5×10^6 stroma). An affinity protein chip with mobilized anti-SP determined the presence of SP(1-4) in extracts from 48 h-stimulated stroma. […] At 24 h, the total levels of SP-IR (supernatants and cell extracts) in stimulated stroma were 185±8 ng. SP levels were reduced to 12±5 ng at 48 h and to baseline levels (<2 ng) at 72 h (Table 3).

NK-2 receptor = experiment: Immunofluorescence for NK-A-binding sites (NK-2) in BM stroma; conditions: 10 ng/ml SCF and/or 10 nM SP(1-4), FIG. 2
Method: as §4, §5

NEP mRNA = experiment: Northern analysis of steady state NEP mRNA in BM stroma; conditions: 10 ng/ml SCF, FIG. 4A
Method: Northern analyses for steady state NEP and NK-1 mRNA were performed as described^28. For NEP mRNA, stromal cells were stimulated with SCF for 16 h in sera-free α-MEM supplemented with Insulin-Transferring-Selenium-A. At different times after, total RNA was extracted and 10 μg used for northern analyses. Membranes were consecutively hybridized with [α-^32P]-dATP-labeled cDNA probes for NEP and 18S rRNA as described^3. NK-1 mRNA was determined with total RNA from stromal cultures that were sequentially stimulated with SCF and SP(1-4), described above. The cDNA for NK-1 is previously described^29. NK-2 cDNA was prepared by RT-PCR with total RNA from BM stroma as template and the same primers used for quantitative RT-PCR (described above). The NK-2 fragment, which was equivalent to 274 bp was subcloned into pNoTA/T7 (5 Prime→3 Prime, Boulder, Colo.). The cDNA for human NEP sand 18S rRNA were purchased from American Type Culture Collection (Manassas, Va.).
Total RNA from unstimulated and stimulated (10 ng/ml SCF) BM stroma was analyzed for steady state NEP mRNA levels by northern analyses. The results shown in FIG. 4A indicate single bands at the predicted size of 1.8 kb. […] Analyses for SP and SP(1-4) were performed at different times using Ciphergen's ProteinChip Arrays. ELISA determined the levels of SP-IR in the supernatant and cell extracts of the stimulated stroma (5×10^6 stroma). […]

Substance | TGF-β, stimulated BM stroma (TGF-β in BM stroma; 1st stimulation, text citing Table 1) [pg] | TGF-β (pg/ml) 1st stimulation (TGF-β in BM stroma) | β-PPT-I mRNA, 1st stimulation (β-PPT-I mRNA) | NK-2 mRNA, 1st stimulation (NK-2 mRNA) | NK-1 mRNA, 1st stimulation (NK-1 mRNA) | percent inhibition on CFU-GM (CFU-GM; 1 nM SP(1-4)) [%] | percent inhibition on CFU-GM (CFU-GM; 10 nM SP(1-4)) [%] | NK-1 expression (biotin-SP binding) (NK-1 receptor) | fluorescence intensity of c-kit labeling (c-kit) | total levels of SP-IR (supernatants and cell extracts) (SP-IR; 24 h, unstimulated <2 ng) [ng] | total levels of SP-IR (supernatants and cell extracts) (SP-IR; 48 h) [ng] | total levels of SP-IR (supernatants and cell extracts) (SP-IR; 72 h) [ng] | NK-2 expression (biotin-NK-A binding) (NK-2 receptor) | NK-1 mRNA, 2nd stimulation (NK-1 mRNA) | steady state NEP mRNA (northern band) (NEP mRNA; 16 h and 24 h) | steady state NEP mRNA (northern band) (NEP mRNA; 48 h) | TGF-β (pg/ml) 2nd stimulation (TGF-β in BM stroma) | β-PPT-I mRNA, 2nd stimulation (β-PPT-I mRNA) | NK-2 mRNA, 2nd stimulation (NK-2 mRNA) | TGF-β levels after 2nd stimulation (TGF-β in BM stroma; 1st stimulation SP(1-4), 2nd stimulation 16 h later, text citing Table 1) [pg]
Arg-Pro-Lys-Pro (RPKP; listed as Homo sapiens) [SP(1-4), tetrapeptide resulting from degradation of SP by endopeptidases such as NEP] | 90 ± 15 | *90 ± 15 pg/ml | <1 | **510 ± 15 | <1 molecules/μg total RNA | 55±4 | 65±6 |  |  |  |  |  |  |  |  |  |  |  |  | 
SCF: stem cell factor, hematopoietic stimulator cytokine purchased from R&D Systems |  | <5 pg/mL | 640 ± 15 | 17 ± 3 | *1550 ± 26 molecules/μg total RNA |  |  | SP binds to stromal cells | increased to bright | 185 ± 8 | 12 ± 5 | < 2 | did not bind | 1480±34 molecules/μg total RNA | Strong bands | no detectable band |  |  |  | 
SCF→SCF: 1st and 2nd stimulation with 10 ng/ml SCF |  |  |  |  |  |  |  |  |  |  |  |  |  | *1480 ± 34 molecules/μg total RNA |  |  | <5 pg/mL | 45 ± 4 | 10 ± 2 | 
SP(1-4)→SP(1-4): 1st and 2nd stimulation with 10 nM SP(1-4) (RPKP; Substance P; UniProt P20366 58-61, looked up, fragment) |  |  |  |  |  |  |  |  |  |  |  |  |  | <1 molecules/μg total RNA |  |  | *64 ± 4 pg/ml | <1 | **484 ± 10 | 64 ± 4
